17 molecules from the Kinase Knowledgebase extract (Sharma et al. 2016) can be followed below.

Where only a bound is given, the exact number is not on record here.

Experiment [1] addresses EGFR (Human), P00533 [T790M/L858R]. The note with it: baf3.
A further experiment deals with EGFR (human) (UniProt P00533).
The target in experiment [2] is EGFR (human), P00533 [L858R].
The target of experiment [3] is EGFR (Human), P00533 [T790M/L858R].
The target of experiment [4] is EGFR (Human), P00533 [Assessment of EGFR-Del T790M Dependent Cell Proliferation in BaF3 Cells].
EGFR (Human), P00533 [Assessment of EGFR-Del T790M Dependent Cell Proliferation in BaF3 Cells], sequence (P00533 whole entry, looked up, stated change not applied): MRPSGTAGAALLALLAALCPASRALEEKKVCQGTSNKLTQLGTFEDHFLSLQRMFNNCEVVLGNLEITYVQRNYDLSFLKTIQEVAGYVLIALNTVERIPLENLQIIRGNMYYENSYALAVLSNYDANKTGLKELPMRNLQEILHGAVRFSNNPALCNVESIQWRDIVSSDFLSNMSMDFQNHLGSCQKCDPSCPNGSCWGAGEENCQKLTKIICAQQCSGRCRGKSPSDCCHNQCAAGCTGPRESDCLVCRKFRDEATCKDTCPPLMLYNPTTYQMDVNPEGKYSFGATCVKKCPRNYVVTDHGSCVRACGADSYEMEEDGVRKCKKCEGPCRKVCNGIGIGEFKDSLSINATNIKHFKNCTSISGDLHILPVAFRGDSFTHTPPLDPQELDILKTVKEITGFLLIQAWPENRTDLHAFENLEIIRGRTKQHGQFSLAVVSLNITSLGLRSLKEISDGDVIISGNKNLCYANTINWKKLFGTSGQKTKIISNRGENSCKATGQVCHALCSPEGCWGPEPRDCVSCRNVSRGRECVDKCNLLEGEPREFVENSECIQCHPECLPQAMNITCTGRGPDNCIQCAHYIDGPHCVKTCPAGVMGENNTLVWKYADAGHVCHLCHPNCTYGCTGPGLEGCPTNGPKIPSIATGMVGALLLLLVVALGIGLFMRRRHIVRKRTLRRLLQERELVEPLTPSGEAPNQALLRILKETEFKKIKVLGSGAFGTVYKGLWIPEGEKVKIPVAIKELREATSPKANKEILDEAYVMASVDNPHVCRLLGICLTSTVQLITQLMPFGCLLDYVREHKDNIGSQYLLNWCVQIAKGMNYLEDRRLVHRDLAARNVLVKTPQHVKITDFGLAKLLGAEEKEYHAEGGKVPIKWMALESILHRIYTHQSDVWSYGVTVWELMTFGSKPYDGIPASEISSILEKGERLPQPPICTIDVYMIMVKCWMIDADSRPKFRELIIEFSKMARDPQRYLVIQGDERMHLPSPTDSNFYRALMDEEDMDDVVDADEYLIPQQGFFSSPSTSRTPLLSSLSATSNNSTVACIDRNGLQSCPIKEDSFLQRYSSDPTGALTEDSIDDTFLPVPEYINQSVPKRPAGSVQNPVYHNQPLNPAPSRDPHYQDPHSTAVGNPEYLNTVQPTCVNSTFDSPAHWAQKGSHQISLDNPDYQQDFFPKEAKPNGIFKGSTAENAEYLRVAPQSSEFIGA

EGFR (Human), P00533 [T790M/L858R], sequence (P00533 whole entry T790M/L858R, looked up): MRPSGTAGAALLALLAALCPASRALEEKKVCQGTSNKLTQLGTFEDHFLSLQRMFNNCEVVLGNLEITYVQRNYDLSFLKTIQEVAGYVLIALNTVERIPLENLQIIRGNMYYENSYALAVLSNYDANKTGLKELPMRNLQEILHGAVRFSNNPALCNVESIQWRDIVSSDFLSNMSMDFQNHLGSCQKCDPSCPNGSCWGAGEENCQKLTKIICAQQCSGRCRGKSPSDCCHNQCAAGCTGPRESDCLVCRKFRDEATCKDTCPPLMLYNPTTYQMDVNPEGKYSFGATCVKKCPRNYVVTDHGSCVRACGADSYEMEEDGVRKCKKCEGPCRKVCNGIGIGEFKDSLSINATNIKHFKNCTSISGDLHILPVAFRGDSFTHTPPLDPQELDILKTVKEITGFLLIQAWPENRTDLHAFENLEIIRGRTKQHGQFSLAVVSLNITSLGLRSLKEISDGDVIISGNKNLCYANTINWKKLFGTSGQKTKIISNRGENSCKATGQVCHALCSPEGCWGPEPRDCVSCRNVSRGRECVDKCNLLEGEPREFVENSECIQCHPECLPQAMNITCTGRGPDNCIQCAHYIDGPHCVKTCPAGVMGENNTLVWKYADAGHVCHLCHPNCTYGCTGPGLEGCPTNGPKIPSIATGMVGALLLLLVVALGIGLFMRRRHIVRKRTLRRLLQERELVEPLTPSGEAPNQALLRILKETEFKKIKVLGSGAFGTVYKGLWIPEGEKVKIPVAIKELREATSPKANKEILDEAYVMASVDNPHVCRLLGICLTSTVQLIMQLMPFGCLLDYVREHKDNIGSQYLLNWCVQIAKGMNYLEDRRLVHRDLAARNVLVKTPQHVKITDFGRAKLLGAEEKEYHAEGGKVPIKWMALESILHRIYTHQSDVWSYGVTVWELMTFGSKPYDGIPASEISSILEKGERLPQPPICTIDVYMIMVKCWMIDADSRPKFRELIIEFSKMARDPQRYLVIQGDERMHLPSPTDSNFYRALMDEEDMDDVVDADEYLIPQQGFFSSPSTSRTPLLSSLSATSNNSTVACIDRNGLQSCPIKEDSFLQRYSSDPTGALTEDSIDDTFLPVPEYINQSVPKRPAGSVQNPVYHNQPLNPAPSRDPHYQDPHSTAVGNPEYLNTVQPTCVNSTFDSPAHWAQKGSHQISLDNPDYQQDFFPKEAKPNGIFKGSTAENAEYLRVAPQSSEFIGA
EGFR (human), P00533 [L858R], sequence (P00533 whole entry L858R, looked up): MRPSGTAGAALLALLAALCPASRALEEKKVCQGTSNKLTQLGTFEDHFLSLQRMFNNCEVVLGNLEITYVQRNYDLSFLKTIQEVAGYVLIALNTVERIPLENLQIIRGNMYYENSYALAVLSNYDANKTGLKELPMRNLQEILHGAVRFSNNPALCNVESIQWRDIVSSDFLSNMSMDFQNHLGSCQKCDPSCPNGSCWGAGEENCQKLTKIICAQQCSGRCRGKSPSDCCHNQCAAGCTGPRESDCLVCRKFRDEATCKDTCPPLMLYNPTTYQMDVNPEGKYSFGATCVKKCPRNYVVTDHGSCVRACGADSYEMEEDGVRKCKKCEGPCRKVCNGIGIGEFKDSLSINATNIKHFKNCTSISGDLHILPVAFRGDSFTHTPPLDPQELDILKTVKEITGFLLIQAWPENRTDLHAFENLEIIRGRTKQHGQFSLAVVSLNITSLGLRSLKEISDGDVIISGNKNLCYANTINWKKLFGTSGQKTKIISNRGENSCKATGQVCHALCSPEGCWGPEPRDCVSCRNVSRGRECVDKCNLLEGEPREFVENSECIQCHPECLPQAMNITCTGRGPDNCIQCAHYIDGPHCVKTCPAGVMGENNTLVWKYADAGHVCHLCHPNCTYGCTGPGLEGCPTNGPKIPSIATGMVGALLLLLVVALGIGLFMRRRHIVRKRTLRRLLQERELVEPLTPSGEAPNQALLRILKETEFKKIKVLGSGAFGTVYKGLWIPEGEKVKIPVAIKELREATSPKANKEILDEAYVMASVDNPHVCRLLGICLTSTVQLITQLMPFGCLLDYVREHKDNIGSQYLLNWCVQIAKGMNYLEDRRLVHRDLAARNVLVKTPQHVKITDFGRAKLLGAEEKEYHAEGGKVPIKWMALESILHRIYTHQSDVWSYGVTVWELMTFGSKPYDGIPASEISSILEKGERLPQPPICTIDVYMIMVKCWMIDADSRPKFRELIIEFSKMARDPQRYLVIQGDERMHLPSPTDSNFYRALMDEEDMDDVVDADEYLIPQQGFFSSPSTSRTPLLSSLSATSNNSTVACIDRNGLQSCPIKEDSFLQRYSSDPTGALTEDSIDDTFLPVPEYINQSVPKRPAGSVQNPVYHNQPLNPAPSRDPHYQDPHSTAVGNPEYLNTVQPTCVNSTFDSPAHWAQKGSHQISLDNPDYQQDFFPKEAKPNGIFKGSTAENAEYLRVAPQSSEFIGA
EGFR (human), sequence (P00533 whole entry, looked up): as the sequence (P00533 whole entry, looked up, stated change not applied) above

`C=CC(=O)Nc1cc(Nc2ncc(Cl)c(Nc3ccccc3P(C)(C)=O)n2)c(OC)cc1N1CCC(N2CCCN(C)CC2)CC1`: the IC50 in experiment [1] was 101 to 250 nM; against EGFR (human), less than 50 nM; in experiment [2], less than 50 nM; in experiment [3], less than 50 nM; in experiment [4], 50 to 100 nM.

With `C=CC(=O)Nc1cc(Nc2ncc(Cl)c(Nc3ccccc3P(C)(C)=O)n2)c(OC)cc1OCCN1CCCC1`, the half-inhibitory concentration (IC50) (in experiment [1]; on EGFR (human); in experiment [2]; in experiment [3]; in experiment [4]) was less than 50 nM each time.

For the molecule `C=CC(=O)Nc1cc(Nc2ncc(Cl)c(Nc3ccccc3P(C)(C)=O)n2)c(OC)cc1N1CCC(N(C)C)CC1`, the IC50 in experiment [1] was 101 to 250 nM; against EGFR (human), less than 50 nM; in experiment [2], less than 50 nM; in experiment [3], less than 50 nM; in experiment [4] it was less than 50 nM.

As for `C=CC(=O)Nc1cc(Nc2ncc(Cl)c(Nc3ccccc3P(C)(C)=O)n2)c(OC)cc1N1CCC(N(C)C)C1` (stereo not given), the half-inhibitory concentration (IC50) (in experiment [1]; on EGFR (human); in experiment [2]; in experiment [3]; in experiment [4]) was less than 50 nM each time.

Consider `C=C(CN1CCN(C(C)C)CC1)C(=O)Nc1ccc(OC)c(Nc2ncc(Cl)c(Nc3ccccc3P(C)(C)=O)n2)c1`, for which the 50% inhibitory concentration (IC50) in experiment [1] is less than 50 nM; at EGFR (human), 50 to 100 nM; in experiment [2] it was less than 50 nM; in experiment [3], less than 50 nM; in experiment [4] it was less than 50 nM.

On to `C=CC(=O)Nc1cc(Nc2ncc(Cl)c(Nc3ccccc3P(C)(C)=O)n2)c(OC)cc1N1CCC(N(CC)CC)C1` (stereo not given), for which the half-maximal inhibitory concentration (IC50) (in experiment [1]; against EGFR (human); in experiment [2]; in experiment [3]; in experiment [4]) was less than 50 nM in each case.

For the molecule `COc1cc(F)c(NC(=O)C#CCCN2CCCCC2)cc1Nc1ncc(Cl)c(Nc2ccccc2P(C)(C)=O)n1`, the IC50 (in experiment [1]; against EGFR (human); in experiment [2]; in experiment [3]; in experiment [4]) was less than 50 nM in each case.

In the case of `C=CC(=O)Nc1cc(Nc2ncc(Cl)c(Nc3ccccc3P(C)(C)=O)n2)c(OC)cc1C`, the IC50 (in experiment [1]; on EGFR (human); in experiment [2]; in experiment [3]; in experiment [4]) was less than 50 nM each time.

As to `C=CC(=O)Nc1cc(Nc2ncc(Cl)c(Nc3ccccc3P(C)(C)=O)n2)c(OC)cc1N(C)CCN(C)CCF`, the half-inhibitory concentration (IC50) (in experiment [1]; at EGFR (human); in experiment [2]; in experiment [3]; in experiment [4]) was less than 50 nM each time.

On to `C=CC(=O)Nc1ccc(OC)c(Nc2ncc(Cl)c(Nc3ccc(OC4CCOC4)cc3P(C)(C)=O)n2)c1` (stereo not given), for which the IC50 in experiment [1] is 50 to 100 nM; at EGFR (human) it was less than 50 nM; in experiment [2] it was less than 50 nM; in experiment [3], less than 50 nM; in experiment [4], less than 50 nM.

As to `C=CC(=O)Nc1cc(Nc2ncc(Cl)c(Nc3ccccc3P(C)(C)=O)n2)c(OC)cc1OC(CF)CN(CC)CC` (stereo not given), the half-inhibitory concentration (IC50) (in experiment [1]; on EGFR (human); in experiment [2]; in experiment [3]; in experiment [4]) was less than 50 nM each time.

Turning to `C=CC(=O)Nc1cc(Nc2ncc(Cl)c(Nc3ccccc3P(C)(C)=O)n2)c(OC)cc1C#CCN(C)C`, the IC50 (in experiment [1]; against EGFR (human); in experiment [2]; in experiment [3]; in experiment [4]) was less than 50 nM each time.

Consider `C=CC(=O)Nc1cc(Nc2ncc(Cl)c(Nc3ccccc3P(C)(C)=O)n2)c(OC)cc1OC(COCC)CN(C)C` (stereo not given), for which the half-inhibitory concentration (IC50) (in experiment [1]; on EGFR (human); in experiment [2]; in experiment [3]; in experiment [4]) was less than 50 nM each time.

For `COc1cc(C)c(NC(=O)CCl)cc1Nc1ncc(C)c(Nc2ccccc2P(C)(C)=O)n1`, the IC50 (in experiment [1]; on EGFR (human); in experiment [2]; in experiment [3]; in experiment [4]) was less than 50 nM in each case.

Regarding `COc1cc(F)c(NC(=O)C#CCN(C)C)cc1Nc1ncc(Cl)c(Nc2ccccc2P(C)(C)=O)n1`, the 50% inhibitory concentration (IC50) (in experiment [1]; at EGFR (human); in experiment [2]; in experiment [3]; in experiment [4]) was less than 50 nM throughout.

Consider `C=CC(=O)Nc1cc(Nc2ncc(Cl)c(Nc3ccccc3P(C)(C)=O)n2)c(OC)cc1N1CC(N2CCCC2)C1`, for which the concentration for half-maximal inhibition (IC50) (in experiment [1]; on EGFR (human); in experiment [2]; in experiment [3]; in experiment [4]) was less than 50 nM each time.

With `COc1cc(C)c(NC(=O)CCl)cc1Nc1ncc(Cl)c(Nc2ccccc2P(C)(C)=O)n1`, the IC50 (in experiment [1]; against EGFR (human); in experiment [2]; in experiment [3]; in experiment [4]) was less than 50 nM each time.

One may read the IC50 as the concentration that inhibits the measured activity by half. A high value points to a need for much substance.
